Source: the supplement of paper PMC10307832

Legend:
Test in all cases: relative viability (nuclei count vs DMSO), 5 days (fraction); higher = more cells survive
[1] = compound: CCN1CCC(CC1)N2C=C(N=N2)CNC3=CC4=C(C(=CN=C4C(=C3)Cl)C#N)NC5=CC(=C(C=C5)F)Cl [KIN001-266] + CC(=O)Nc1cccc(-n2c(=O)n(C3CC3)c(=O)c3c(Nc4ccc(I)cc4F)n(C)c(=O)c(C)c32)c1 [Trametinib] (partner 0.02 µM)
Summary of the method: (§1)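 Relative viability is defined as nuclei in treated wells over nuclei in vehicle wells. Duplicate plates were run and medians reported. Lung cancer cell lines in 1536-well plates were dosed by pin tool one day after seeding, with one drug or with a fixed anchor-drug dose plus five library-drug doses (not always all listed) in √10 steps, and nuclei were counted after 5 days.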

[2] = compound: CCN1CCC(CC1)N2C=C(N=N2)CNC3=CC4=C(C(=CN=C4C(=C3)Cl)C#N)NC5=CC(=C(C=C5)F)Cl [KIN001-266] + CS(=O)(=O)CCNCc1ccc(-c2ccc3ncnc(Nc4ccc(OCc5cccc(F)c5)c(Cl)c4)c3c2)o1 [Lapatinib] (partner 2 µM)
Summary of the method: as §1

[3] = compound: CCN1CCC(CC1)N2C=C(N=N2)CNC3=CC4=C(C(=CN=C4C(=C3)Cl)C#N)NC5=CC(=C(C=C5)F)Cl [KIN001-266] + O=C(c1cc(Cc2n[nH]c(=O)c3ccccc23)ccc1F)N1CCN(C(=O)C2CC2)CC1 [Olaparib] (partner 8 µM)
Summary of the method: as §1

[4] = compound: CCN1CCC(CC1)N2C=C(N=N2)CNC3=CC4=C(C(=CN=C4C(=C3)Cl)C#N)NC5=CC(=C(C=C5)F)Cl [KIN001-266] + N=C(N)NC(=N)NCCc1ccccc1 [Phenformin] (partner 250 µM)
Summary of the method: as §1

Cell Line: COR-L 105
- relative viability ([1]; first compound 0.08 µM): 0.42
- relative viability ([1]; first compound 0.253 µM): 0.517
- relative viability ([1]; first compound 0.8 µM): 0.417
- relative viability ([1]; first compound 2.53 µM): 0.43
- relative viability ([1]; first compound 8 µM): 0.455
- relative viability ([2]; first compound 0.08 µM): 0.349
- relative viability ([2]; first compound 0.253 µM): 0.393
- relative viability ([2]; first compound 0.8 µM): 0.34
- relative viability ([2]; first compound 2.53 µM): 0.417
- relative viability ([2]; first compound 8 µM): 0.381
- relative viability ([3]; first compound 0.08 µM): 0.729
- relative viability ([3]; first compound 0.253 µM): 0.619
- relative viability ([3]; first compound 0.8 µM): 0.651
- relative viability ([3]; first compound 2.53 µM): 0.521
- relative viability ([3]; first compound 8 µM): 0.566
- relative viability ([4]; first compound 0.08 µM): 0.48
- relative viability ([4]; first compound 0.253 µM): 0.641
- relative viability ([4]; first compound 0.8 µM): 0.534
- relative viability ([4]; first compound 2.53 µM): 0.641
- relative viability ([4]; first compound 8 µM): 0.431

Cell Line: LK-2
- relative viability ([1]; first compound 0.08 µM): 0.891
- relative viability ([1]; first compound 0.253 µM): 0.781
- relative viability ([1]; first compound 0.8 µM): 0.877
- relative viability ([1]; first compound 2.53 µM): 0.847
- relative viability ([1]; first compound 8 µM): 0.721
- relative viability ([2]; first compound 0.08 µM): 1.06
- relative viability ([2]; first compound 0.253 µM): 0.836
- relative viability ([2]; first compound 0.8 µM): 0.884
- relative viability ([2]; first compound 2.53 µM): 0.834
- relative viability ([2]; first compound 8 µM): 1.05
- relative viability ([3]; first compound 0.08 µM): 0.879
- relative viability ([3]; first compound 0.253 µM): 0.689
- relative viability ([3]; first compound 0.8 µM): 0.672
- relative viability ([3]; first compound 2.53 µM): 0.557
- relative viability ([3]; first compound 8 µM): 0.574
- relative viability ([4]; first compound 0.08 µM): 0.538
- relative viability ([4]; first compound 0.253 µM): 0.352
- relative viability ([4]; first compound 0.8 µM): 0.342
- relative viability ([4]; first compound 2.53 µM): 0.281
- relative viability ([4]; first compound 8 µM): 0.288

Cell Line: NCI-H727
- relative viability ([1]; first compound 0.08 µM): 0.431
- relative viability ([1]; first compound 0.253 µM): 0.384
- relative viability ([1]; first compound 0.8 µM): 0.391
- relative viability ([1]; first compound 2.53 µM): 0.391
- relative viability ([1]; first compound 8 µM): 0.402
- relative viability ([2]; first compound 0.08 µM): 0.821
- relative viability ([2]; first compound 0.253 µM): 1.1
- relative viability ([2]; first compound 0.8 µM): 0.806
- relative viability ([2]; first compound 2.53 µM): 0.805
- relative viability ([2]; first compound 8 µM): 0.537
- relative viability ([3]; first compound 0.08 µM): 0.679
- relative viability ([3]; first compound 0.253 µM): 0.649
- relative viability ([3]; first compound 0.8 µM): 0.626
- relative viability ([3]; first compound 2.53 µM): 0.683
- relative viability ([3]; first compound 8 µM): 0.531
- relative viability ([4]; first compound 0.08 µM): 0.612
- relative viability ([4]; first compound 0.253 µM): 0.615
- relative viability ([4]; first compound 0.8 µM): 0.509
- relative viability ([4]; first compound 2.53 µM): 0.595
- relative viability ([4]; first compound 8 µM): 0.364

Cell Line: RERF-LC-KJ
- relative viability ([1]; first compound 0.08 µM): 0.945
- relative viability ([1]; first compound 0.253 µM): 0.849
- relative viability ([1]; first compound 0.8 µM): 0.823
- relative viability ([1]; first compound 2.53 µM): 0.778
- relative viability ([1]; first compound 8 µM): 0.556
- relative viability ([2]; first compound 0.08 µM): 0.871
- relative viability ([2]; first compound 0.253 µM): 0.828
- relative viability ([2]; first compound 0.8 µM): 0.817
- relative viability ([2]; first compound 2.53 µM): 0.857
- relative viability ([2]; first compound 8 µM): 0.781
- relative viability ([3]; first compound 0.08 µM): 0.974
- relative viability ([3]; first compound 0.253 µM): 0.952
- relative viability ([3]; first compound 0.8 µM): 0.858
- relative viability ([3]; first compound 2.53 µM): 0.762
- relative viability ([3]; first compound 8 µM): 0.649
- relative viability ([4]; first compound 0.08 µM): 0.436
- relative viability ([4]; first compound 0.253 µM): 0.354
- relative viability ([4]; first compound 0.8 µM): 0.415
- relative viability ([4]; first compound 2.53 µM): 0.355
- relative viability ([4]; first compound 8 µM): 0.345

Cell Line: NCI-H2023
- relative viability ([1]; first compound 0.08 µM): 0.51
- relative viability ([1]; first compound 0.253 µM): 0.578
- relative viability ([1]; first compound 0.8 µM): 0.533
- relative viability ([1]; first compound 2.53 µM): 0.447
- relative viability ([1]; first compound 8 µM): 0.456
- relative viability ([2]; first compound 0.08 µM): 0.774
- relative viability ([2]; first compound 0.253 µM): 0.971
- relative viability ([2]; first compound 0.8 µM): 1.09
- relative viability ([2]; first compound 2.53 µM): 0.855
- relative viability ([2]; first compound 8 µM): 0.34
- relative viability ([3]; first compound 0.08 µM): 0.465
- relative viability ([3]; first compound 0.253 µM): 0.489
- relative viability ([3]; first compound 0.8 µM): 0.528
- relative viability ([3]; first compound 2.53 µM): 0.47
- relative viability ([3]; first compound 8 µM): 0.411
- relative viability ([4]; first compound 0.08 µM): 0.378
- relative viability ([4]; first compound 0.253 µM): 0.391
- relative viability ([4]; first compound 0.8 µM): 0.401
- relative viability ([4]; first compound 2.53 µM): 0.304
- relative viability ([4]; first compound 8 µM): 0.28

Cell Line: NCI-H322M
- relative viability ([1]; first compound 0.08 µM): 0.487
- relative viability ([1]; first compound 0.253 µM): 0.515
- relative viability ([1]; first compound 0.8 µM): 0.5
- relative viability ([1]; first compound 2.53 µM): 0.479
- relative viability ([1]; first compound 8 µM): 0.497
- relative viability ([2]; first compound 0.08 µM): 0.575
- relative viability ([2]; first compound 0.253 µM): 0.604
- relative viability ([2]; first compound 0.8 µM): 0.601
- relative viability ([2]; first compound 2.53 µM): 0.57
- relative viability ([2]; first compound 8 µM): 0.489
- relative viability ([3]; first compound 0.08 µM): 0.802
- relative viability ([3]; first compound 0.253 µM): 0.737
- relative viability ([3]; first compound 0.8 µM): 0.764
- relative viability ([3]; first compound 2.53 µM): 0.72
- relative viability ([3]; first compound 8 µM): 0.698
- relative viability ([4]; first compound 0.08 µM): 0.841
- relative viability ([4]; first compound 0.253 µM): 0.835
- relative viability ([4]; first compound 0.8 µM): 0.822
- relative viability ([4]; first compound 2.53 µM): 0.743
- relative viability ([4]; first compound 8 µM): 0.747

Cell Line: NCI-H1666
- relative viability ([1]; first compound 0.08 µM): 0.909
- relative viability ([1]; first compound 0.253 µM): 0.897
- relative viability ([1]; first compound 0.8 µM): 0.713
- relative viability ([1]; first compound 2.53 µM): 0.855
- relative viability ([1]; first compound 8 µM): 0.761
- relative viability ([2]; first compound 0.08 µM): 0.804
- relative viability ([2]; first compound 0.253 µM): 0.646
- relative viability ([2]; first compound 0.8 µM): 0.671
- relative viability ([2]; first compound 2.53 µM): 0.646
- relative viability ([2]; first compound 8 µM): 0.509
- relative viability ([3]; first compound 0.08 µM): 0.77
- relative viability ([3]; first compound 0.253 µM): 0.754
- relative viability ([3]; first compound 0.8 µM): 0.607
- relative viability ([3]; first compound 2.53 µM): 0.739
- relative viability ([3]; first compound 8 µM): 0.73
- relative viability ([4]; first compound 0.08 µM): 0.547
- relative viability ([4]; first compound 0.253 µM): 0.627
- relative viability ([4]; first compound 0.8 µM): 0.573
- relative viability ([4]; first compound 2.53 µM): 0.581
- relative viability ([4]; first compound 8 µM): 0.574
